Molecules are shown by their SMILES.

For one data set, the target named is T1, TRPV1 receptors (Mus musculus, UniProt Q704Y3).
T1 construct: from tissue; host or cells: cornea of the living mouse (C fibres)
T1 sequence (Q704Y3 whole entry): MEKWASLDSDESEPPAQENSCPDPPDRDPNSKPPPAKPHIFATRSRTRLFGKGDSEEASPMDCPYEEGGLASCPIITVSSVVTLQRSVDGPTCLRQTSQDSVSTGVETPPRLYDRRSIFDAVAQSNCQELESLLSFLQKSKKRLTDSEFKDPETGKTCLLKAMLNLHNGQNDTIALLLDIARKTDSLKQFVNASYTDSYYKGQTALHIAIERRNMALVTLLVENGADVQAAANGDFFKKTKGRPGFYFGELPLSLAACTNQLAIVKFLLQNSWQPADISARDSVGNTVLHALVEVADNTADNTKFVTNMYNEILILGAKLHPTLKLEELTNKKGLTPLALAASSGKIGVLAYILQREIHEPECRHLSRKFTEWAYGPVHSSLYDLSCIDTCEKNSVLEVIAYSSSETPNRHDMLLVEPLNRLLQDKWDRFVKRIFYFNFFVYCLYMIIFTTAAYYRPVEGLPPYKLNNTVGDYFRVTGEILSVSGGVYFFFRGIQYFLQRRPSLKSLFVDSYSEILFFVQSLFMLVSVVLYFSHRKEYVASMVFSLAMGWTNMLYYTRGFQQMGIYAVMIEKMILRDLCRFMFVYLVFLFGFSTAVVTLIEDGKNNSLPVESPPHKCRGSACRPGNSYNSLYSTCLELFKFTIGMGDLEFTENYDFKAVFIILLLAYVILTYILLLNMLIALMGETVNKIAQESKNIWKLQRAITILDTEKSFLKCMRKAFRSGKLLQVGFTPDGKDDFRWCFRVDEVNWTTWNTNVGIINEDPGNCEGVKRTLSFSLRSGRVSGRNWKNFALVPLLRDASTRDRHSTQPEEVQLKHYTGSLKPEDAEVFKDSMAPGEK
Kind of data set: Test of mouse corneal irritation (capsaicin ocular instillation). The conditions noted are these: 1 mg/kg (po), pretreatment time t = 1 h, n = 10, 2 μl of 160 μM capsaicin in the eye, rubbing counted for 2 min. Format: in vivo. On the procedure: Test of Mouse Corneal Irritation
The irritant nature of capsaicin is readily assessed on the cornea since this organ is one of the organs most densely innervated with C fibres. In this context, from preliminary experiments, the application of a very small amount of capsaicin (2 μl at a concentration of 160 μM) to the surface of the cornea of an animal leads to a certain number of stereotypical behavioral traits associated with irritation, which are easy to record. Among these, the following are noted: blinking of the eye, rubbing of the instilled eye with the ipsilateral front paw, rubbing of the face with both front paws, scratching of the ipsilateral face with the hind paw. […] Its aspect is moreover also normal. […]
In practice, the test product is administered orally and, with a delay (pretreatment time: t) that depends on the pharmacokinetic data, the animal receives an ocular instillation of 2 μl of a 160 μM capsaicin solution prepared as indicated above. During a 2-minute observation following the instillation, the number of times the instilled eye is rubbed with the ipsilateral front paw is recorded.
For a given animal, the percentage of protection is calculated as follows: P=100−((number of scratching actions observed/mean number of scratching actions for the group treated with the solvent)×100) […]
`Cn1cnc2cc(NC(=O)c3cc4cc(F)cnc4n3Cc3cccc(F)c3)ccc21` [Compound 15, N-(1-methyl-1H-benzimidazol-5-yl)-5-fluoro-1-[(3-fluorophenyl)methyl]-1H-pyrrolo[2,3-b]pyridine-2-carboxamide]: the “% P (percentage of protection)” value was 50% - (1 h).

System in a further data set: not given
Assay: not given
Conditions: not given
`Cc1nc2cc(NC(=O)c3cc4cc(F)cnc4n3Cc3cccc(F)c3)ccc2n1C` displayed a melting point of 226 to 228 °C. For the compound `Cn1ccc2cc(NC(=O)c3cc4cc(C(F)(F)F)cnc4n3Cc3cccc(F)c3)ccc21`, the melting point lay in the range of 229 to 231 °C. Same read-out and setting: for `Cc1nc2cc(NC(=O)c3cc4ncccc4n3Cc3cccc(F)c3)ccc2s1` the value was 263 to 265 °C. The same measure, in the same setting: for `Cc1nc2cc(NC(=O)c3cc4cc(Cl)ncc4n3Cc3cccc(F)c3)ccc2n1C` the value was 240 to 242 °C. Same read-out and setting: for `Cc1nc2cc(NC(=O)c3cc4ncccc4n3Cc3cccc(F)c3)ccc2n1C` the value was 245 to 247 °C. As for `Cn1ccc2cc(NC(=O)c3cc4ccncc4n3Cc3cccc(F)c3)ccc21`, the melting point was 213 to 214.5 °C. `Cc1nc2cc(NC(=O)c3cc4cccnc4n3-c3ccccc3)ccc2n1C` displayed a melting point of 286 to 288 °C. Still for that read-out and setting: for `Cc1nc2cc(NC(=O)c3cc4cnccc4n3Cc3cccc(F)c3)ccc2n1C` the value was 263 to 264 °C; for `Cn1cnc2cc(NC(=O)c3cc4ncccc4n3Cc3cccc(F)c3)ccc21`, 277 to 281 °C.

The values are drawn from US7763636B2, “N-(arylalkyl)-1H-pyrrolopyridine-2-carboxamide derivatives, preparation and therapeutic use thereof” (Sanofi-Aventis, priority 2005, dated 2010).
